Measured values published in patent US3943123A, “Novel beta-lactams and novel process” (Koninklijke Nederlandsche Gist-En Spiritusfabriek N.V., priority 1974, dated 1976).
Converted amounts (≈) assume the structure as drawn.

Assays:
[1] = solubility in various organic solvents; format: physicochemical; conditions: cis isomer, in words
test organisms = test: anti-bacterial activity as determined by standard tests; format: cell-based; conditions: in words
Source text: Many of the β-lactams described here have anti-bacterial activity as determined by standards tests. […] The novel β-lactams of the invention are also useful intermediates for the preparation of complex substituted amino acids which can then be polymerized to form polymers. The amino acids are formed by 1,2-cleavage of the β-lactams with an alkali metal hydroxide or alkoxide such as sodium methoxide in a lower alkanol such as methanol to form the corresponding alkali metal salt of the resulting 3-aminopropionic acid which can be acidified to form the corresponding free amino acid.
(§1) A stock solution of the test compounds at a concentration of […] in 0.05 molar phosphate buffer solution at a pH of 6.5 was prepared and two-fold dilutions were made with sterile buffer. 1 cc quantities of each dilution were then incorporated into 19 cc of brain heart infusion agar in sterile petri dishes. The hardened surface was then inoculated with the test organisms and it was then incubated for 18 hours at 37°C. The minimum inhibitory concentration (MIC) which is the least amount of compound completely inhibiting the test organism is determined in mg/cc.

[2] = test system: Bacillus Subtilis ATCC 6633; test: MIC by two-fold agar dilution (brain heart infusion agar), Bacillus subtilis; format: cell-based; conditions: ATCC6633, 18 hours at 37°C, pH 6.5 buffer, read-out: minimum inhibitory concentration (MIC)
Description: as §1

[3] = test system: Staphylococcus Aureus A 355; test: MIC by two-fold agar dilution (brain heart infusion agar), Staphylococcus aureus A 355; format: cell-based; conditions: strain A 355, 18 hours at 37°C, pH 6.5 buffer, read-out: minimum inhibitory concentration (MIC)
Description: as §1

[4] = test system: Staphylococcus Aureus 2160'; test: MIC by two-fold agar dilution (brain heart infusion agar), Staphylococcus aureus 2160'; format: cell-based; conditions: strain 2160', 18 hours at 37°C, pH 6.5 buffer, read-out: minimum inhibitory concentration (MIC)
Description: as §1

[5] = test system: Staphylococcus Aureus A 321; test: MIC by two-fold agar dilution (brain heart infusion agar), Staphylococcus aureus A 321; format: cell-based; conditions: strain A 321, 18 hours at 37°C, pH 6.5 buffer, read-out: minimum inhibitory concentration (MIC)
Description: as §1

O=C(O)c1ccc(N2C(=O)[C@@H](Oc3ccccc3)[C@H]2c2ccccc2O)cc1 (relative stereo) [cis-1-(p-carboxyphenyl)-3-phenoxy-4-(o-hydroxyphenyl)azetidin-2-one]
solubility in various organic solvents [1]: low solubility in various organic solvents

COc1ccc(C2C(Oc3ccccc3)C(=O)N2c2ccc(C(=O)O)cc2)cc1 (stereo not drawn) [1-(p-carboxyphenyl)-3-phenoxy-4-(p-methoxyphenyl)-azetidin-2-one]
antibacterial activity (test organisms): outstanding for their antibacterial activity

COc1ccc(N2C(=O)C(Oc3ccccc3)C2c2ccc(C(=O)O)cc2)cc1 (stereo not drawn) [1-(p-methoxyphenyl)-3-phenoxy-4-(p-carboxyphenyl)-azetidin-2-one]
antibacterial activity (test organisms): outstanding for their antibacterial activity
MIC [2]: 100 mg/mL (≈ 257 mM)
MIC [3]: 100 mg/mL (≈ 257 mM)
MIC [4]: 100 mg/mL (≈ 257 mM)
MIC [5]: 100 mg/mL (≈ 257 mM)

O=C(O)c1ccc(N2C(=O)C(Oc3ccccc3)C2c2ccco2)cc1 (stereo not drawn) [1-p-carboxyphenyl-3-phenoxy-4-α-furyl-azetidin-2-one]
antibacterial activity (test organisms): outstanding for their antibacterial activity
MIC [2]: 50 mg/mL (≈ 143 mM)
